Measured values reported in patent publication US5922582A, “Indole alkaloid type compound 0089-D” (HIGETA SHOYU Co., Ltd., priority 1998, dated 1999).
Values after ≈ are worked out from the molar mass of the structure shown.

Columns and labels:
[1] = system: Nocardia brasiliensis IFM 0089; test: Susceptibility to antibiotics of the producing strain; type: cell-based
Description: The present strain was cultured in a medium (brain heart infusion containing 2% glucose) at 250 rpm at 30° C. for 72 hours with shaking, and the cells grown in the medium was harvested by centrifugation (3000 rpm×10 minutes) and washed twice with distilled water. Further, the cells were washed with ethanol and then dried under vacuum to give the dried cells. The amino acid composition, sugar composition and lipid composition of the cell wall of this dried cells were examined on the basis of Bergey's Manual of Determinative Bacteriology, 9th ed., Williams, Baltimore, 1993. Meso-diaminopimelic acid was detected in the amino acid analysis, and arabinose and galactose were detected in the sugar analysis. The presence of mycolic acid was confirmed from the result of the lipid analysis, and its type was Nocardia type. Isoprenoid quinone, i.e., a cell lipid component was confirmed to contain MK-8 (H4) cycle as a major component. The present strain was identified as Nocardia brasiliensis, further from its ability to assimilate casein, hypoxanthine and tyrosine and from its production pattern of acid from sugar and its susceptibility pattern to antimicrobial agents as shown in Table 4 (Mikami & Yazawa, Susceptibility pattern of pathogenic Nocardia to some selected antimicrobial agents and their usefulness in the identification work in a clinical laboratory: Bull. JFCC "Bulltein of the Japan Federation for Culture Collections", 5: 89-95, 1989).

KB cells = test: Cytotoxicity on cultured tumor cell line KB (MTT); type: cell-based; conditions: Homo sapiens, 72 hours, read-out: IC50 (growth of tumor cells)
Description: (§1) Cytotoxicity of compound 0089-D on cultured tumor cell lines, P388, adriamycin resistant P388 (P388/ADR), L1210 and KB was examined in the following manner.
(§2) L1210 was suspended in RPMI1640 medium, P388 and P388/ADR in RPMI1640 medium containing 20 μM of 2-mercaptoethanol, and KB in Dulbecco's MEM medium (any medium contained 10% fetal bovine serum) respectively whereby cell suspension (5.6×10^4 cells/ml) were prepared. The test sample was dissolved in methanol and diluted serially with each medium to give solutions containing the test sample at various concentrations. […] 72 hours thereafter, cell growth was measured by the following calorimetric assay method using 3-(4,5-dimethyl-2-thiazolyl)-2,5-diphenyl-2H-tetrazolium bromide (MTT).
(§3) That is, 20 μl of 2 mg/ml MTT solution was added to each well and the cells were incubated for 4 hours at 37° C. Thereafter, 50 μl of 50% dimethylformamide solution containing 20% sodium dodecyl sulfate was added to each well to dissolve the formed violet formazan crystal, and its absorbance at 570 nm was measured in a microplate reader (immunoreader) and used as an indicator of the growth. […]
(§4) Degree of inhibition=[1--(absorbance in the presence of test sample)/(absorbance in the absence of test sample)]×100

[2] = system: N. otitidiscaviarum IFM0239; test: Antimicrobial activity, MIC; type: cell-based; conditions: N. otitidiscaviarum IFM0239, Muller Hinton broth, 37° C., 24 hours
Description: (§5) The antimicrobial activity of compound 0089-D on various microorganisms was confirmed by determining minimum inhibitory concentration (MIC) on growth.
(§6) The MIC of compound 0089-D for various microorganisms was determined in a Muller Hinton broth (BBL) containing 0.2% glucose according to the regulations of the Japan Chemotherapy Association (The Essentials of Antibiotics, 4th ed., Tokyo University Press, 1992).
(§7) Each test microorganism was prepared at density of 1×10^6 cfu/ml in the above medium to prepare a test microorganism liquid.
(§8) The test sample (compound 0089-D) was dissolved in methanol and diluted in the above Muller Hinton broth by subjecting it to serial 2-fold dilution starting at the concentration of 1 mg/ml. 180 μl of the test microorganism liquid and 20 μl of the test sample solution were put through a pipette to a 96-well micro-titer plate and incubated at 37° C. 24 hours thereafter, growth was examined by the eye to determine MIC.

[3] = system: Mycobacterium smegmatis ATCC607; test: Antimicrobial activity, MIC; type: cell-based; conditions: Mycolicibacterium smegmatis; Mycobacterium smegmatis ATCC607, Muller Hinton broth, 37° C., 24 hours
Description: as §5, §6, §7, §8

N. nova IFM0290 = test: Antimicrobial activity, MIC; type: cell-based; conditions: N. nova IFM0290, Muller Hinton broth, 37° C., 24 hours
Description: as §5, §6, §7, §8

M. flavescens ATCC14474 = test: Antimicrobial activity, MIC; type: cell-based; conditions: Mycolicibacterium flavescens; M. flavescens ATCC14474, Muller Hinton broth, 37° C., 24 hours
Description: as §5, §6, §7, §8

[4] = system: Micrococcus luteus IFM2066; test: Antimicrobial activity, MIC; type: cell-based; conditions: Micrococcus luteus IFM2066, Muller Hinton broth, 37° C., 24 hours
Description: as §5, §6, §7, §8

N. asteroides IFM0319 = test: Antimicrobial activity, MIC; type: cell-based; conditions: Nocardia asteroides; N. asteroides IFM0319, Muller Hinton broth, 37° C., 24 hours
Description: as §5, §6, §7, §8

M. phlei ATCC11758 = test: Antimicrobial activity, MIC; type: cell-based; conditions: Mycolicibacterium phlei; M. phlei ATCC11758, Muller Hinton broth, 37° C., 24 hours
Description: as §5, §6, §7, §8

N. farcinica IFM0284 = test: Antimicrobial activity, MIC; type: cell-based; conditions: Nocardia farcinica; N. farcinica IFM0284, Muller Hinton broth, 37° C., 24 hours
Description: as §5, §6, §7, §8

N. brasiliensis IFM0236 = test: Antimicrobial activity, MIC; type: cell-based; conditions: N. brasiliensis IFM0236, Muller Hinton broth, 37° C., 24 hours
Description: as §5, §6, §7, §8

Bacillus subtilis PCI189 = test: Antimicrobial activity, MIC; type: cell-based; conditions: Bacillus subtilis PCI189, Muller Hinton broth, 37° C., 24 hours
Description: as §5, §6, §7, §8

[5] = system: N. pseudobrasiliensis IFM0624; test: Antimicrobial activity, MIC; type: cell-based; conditions: N. pseudobrasiliensis IFM0624, Muller Hinton broth, 37° C., 24 hours
Description: as §5, §6, §7, §8

[6] = system: Nocardia transvalensis IFM0333; test: Antimicrobial activity, MIC; type: cell-based; conditions: Nocardia transvalensis IFM0333, Muller Hinton broth, 37° C., 24 hours
Description: as §5, §6, §7, §8

Solubility = type: physicochemical
[7] = system: adriamycin-resistant P388 (P388/ADR) cells; test: Cytotoxicity on adriamycin resistant P388 (P388/ADR) (MTT); type: cell-based; conditions: 72 hours, read-out: IC50 (growth of tumor cells)
Description: as §1, §2, §3, §4

various microorganisms = test: Antimicrobial activity on various microorganisms, overall; type: cell-based; conditions: in words
Description: as §5, §6, §7
(§9) To determine MIC for fungi, Sabouraud's Dextrose liquid medium was used and the density of the test fungi was 1×10^4 cfu/ml.
as §8

L1210 cells = test: Cytotoxicity on cultured tumor cell line L1210 (MTT); type: cell-based; conditions: Mus musculus, L1210, 72 hours, read-out: IC50 (growth of tumor cells)
Description: as §1, §2, §3, §4

[8] = system: Candida albicans ATCC90028; test: Antimicrobial activity, MIC (fungi); type: cell-based; conditions: Candida albicans ATCC90028, Sabouraud's Dextrose liquid medium, 37° C., 24 hours
Description: as §5, §6, §9, §8

[9] = system: Aspergillus niger ATCC40606; test: Antimicrobial activity, MIC (fungi); type: cell-based; conditions: Aspergillus niger ATCC40606, Sabouraud's Dextrose liquid medium, 37° C., 24 hours
Description: as §5, §6, §9, §8

[10] = system: cultured tumor cells (P388, P388/ADR, L1210 and KB); test: Cytotoxicity on the cultured tumor cells, overall (MTT); type: cell-based; conditions: in words
Description: as §1, §2, §3, §4

Micrococcus luteus = test: Paper disk method, growth inhibition of Micrococcus luteus; type: cell-based; conditions: nutrient agar, 30° C., 24 hours
Description: The resulting culture, 150 L, was filtered through a filter cloth whereby the cells were recovered. The operation of extracting the cells was carried out by adding 20 L methanol. The thus-obtained extract was concentrated and evaporated into dryness in an evaporator. 1 L distilled water was added to 4 g of the dried matter to give a suspension, which was then partitioned and extracted 3 times with 1 L of n-hexane. The n-hexane fraction, 3 L, was concentrated and evaporated into dryness in an evaporator, dissolved in 8 ml of an n-hexane:ethyl acetate mixture (20:1) and subjected to silica gel chromatography (column 6 cm×20 cm). After impurities were eluted with 2 L of an n-hexane : ethyl acetate mixture (20 1), compound 0089-D was eluted with 2 L of an n-hexane:ethyl acetate mixture (10:1). Detection of compound 0089-D in the eluted fraction was carried out using growth inhibitory activity on a test microorganism Micrococcus luteus as the indicator by the following paper disk method.
The eluted fraction was adsorbed onto a paper disk and placed on a nutrient agar medium (Difco) on which M. luteus had been spread, and then incubated at 30° C. for 24 hours.

P388 cells = test: Cytotoxicity on cultured tumor cell line P388 (MTT); type: cell-based; conditions: Mus musculus, P388, 72 hours, read-out: IC50 (growth of tumor cells)
Description: as §1, §2, §3, §4

With `C[C@@H](O)[C@H]1C(=O)N2C(C(=O)O)=C(SCCN=CN)C[C@H]12` [imipenem] the Susceptibility to antibiotics [1] was “negative”.

In the case of `NC[C@H]1O[C@H](O[C@H]2[C@H](O)[C@@H](O[C@H]3O[C@H](CO)[C@@H](O)[C@H](N)[C@H]3O)[C@H](N)C[C@@H]2N)[C@H](O)[C@@H](O)[C@@H]1O` [kanamycin], the Susceptibility to antibiotics [1] is reported as “negative”.

With `NC[C@H]1O[C@H](O[C@H]2[C@H](O)[C@@H](O[C@H]3O[C@H](CO)[C@@H](O)[C@H](N)[C@H]3O)[C@H](N)C[C@@H]2N)[C@H](N)C[C@@H]1O` [tobramycin] the Susceptibility to antibiotics [1] was “positive”.

For `[C-]#[N+]C(=C\c1cn(C)c2ccccc12)/C=C/C(=C)C` [Compound 0089-D], the IC50 (KB cells) was 0.75 µg/mL (≈ 3.02 µM), the MIC [2] was 6.25 µg/mL (≈ 25.2 µM) and the MIC [3] was 0.78 µg/mL (≈ 3.14 µM). For the same molecule, the MIC (N. nova IFM0290) was 1.56 µg/mL (≈ 6.28 µM), the MIC (M. flavescens ATCC14474) was 3.13 µg/mL (≈ 12.6 µM) and the MIC [4] was 3.13 µg/mL (≈ 12.6 µM). It also gave an MIC (N. asteroides IFM0319) of 12.5 µg/mL (≈ 50.3 µM), an MIC (M. phlei ATCC11758) of 1.56 µg/mL (≈ 6.28 µM) and an MIC (N. farcinica IFM0284) of 12.5 µg/mL (≈ 50.3 µM). It also gave an MIC (N. brasiliensis IFM0236) of 25 µg/mL (≈ 101 µM), an MIC (Bacillus subtilis PCI189) of 3.13 µg/mL (≈ 12.6 µM) and an MIC [5] of 3.13 µg/mL (≈ 12.6 µM). The MIC [6] was 3.13 µg/mL (≈ 12.6 µM), the Solubility (Solubility; ether) was “Soluble” and the Solubility (Solubility; ethyl acetate) was “Soluble”. For the same molecule, the Solubility (Solubility; hexane) was “Slightly soluble”, the Solubility (Solubility; methanol) was “Soluble” and the Solubility (Solubility; water) was “Insoluble”. For the same molecule, the IC50 [7] was 0.56 µg/mL (≈ 2.26 µM), the antimicrobial spectrum (various microorganisms) was “wide antimicrobial spectrum” and the IC50 (L1210 cells) was 0.25 µg/mL (≈ 1.01 µM). The MIC [8] was 25 µg/mL (≈ 101 µM), the MIC [9] was 0.39 µg/mL (≈ 1.57 µM) and the “cytotoxicity on the cultured tumor cells” value [10] was “strong cytotoxicity”. For the same molecule, the “inhibition zone of growth” value (Micrococcus luteus) was “inhibition zone of growth of M. luteus” and the IC50 (P388 cells) was 0.44 µg/mL (≈ 1.77 µM).

In the case of `O=c1[nH]cc(F)c(=O)[nH]1` [Compound 5-FU, 5-FU], the Susceptibility to antibiotics [1] is reported as “negative”.
